pIC50: −log10 of the molar value. “Also recorded” adds a separate entry of the source. Where two headings read alike, the source gives them in different places.
What was measured:
[1] = test system: Gli1 protein; assay: Effect on Gli1 protein expression by Western blotting in SAG-stimulated NIH3T3 cells; type: cell-based, murine; parameters: key to Effect on Gli1 protein: +++: Gli1 protein level strongly reduced (almost abolished) at 24 and 48 h compared to DMSO control; ++: Gli1 protein level reduced (more than 50%) at 48 h compared to DMSO control; +: Gli1 protein level is weakly reduced (about 50%) at 48 h compared to DMSO control; conditions: compound 1 µM; for Effect on Gli1 protein: NIH3T3 cells stimulated with SAG (100nM), 24 or 48 h, compared to DMSO control; for Gli1 protein level: Figure 1, NIH3T3 cells, 48 h, reference GANT61 5 µM, result in words
Protocol: The effect of compounds on Gli1 protein expression was evaluated in HH-responsive murine NIH3T3 cells by Western blotting. Both Gli1 and Ptch1 are targets of the Gli, and Gli1 in particular is considered the best read-out of HH signaling activity.
Briefly, NIH3T3 were stimulated for 48 h with 3-chloro-N-[trans-4-(methylamino)cyclohexyl]-N-[[3-(4-pyridinyl)phenyl]methyl]-benzo[b]thiophene-2-carboxamide (SAG) (100nM) to activate the endogenous HH pathway, and treated for 24 or 48 h with each compound (1 µM). NIH3T3 cells were lysed and subjected to Western blotting using a specific anti-GLI1 antibody. The effect of each compound was compared to that of GANT61 (5 µM), a well known Gli1/2 inhibitor (Lauth M. et al. PNAS 2007, 104, 8455).

[2] = test system: A375 (metastatic melanoma cell line); assay: Cancer cell proliferation, MTT-based assay, A375; conditions: Homo sapiens, A-375, A375, 72 h; for IC50: read-out: Effect on proliferation A375 (IC50; nM)
Protocol: (§1) The effects on cancer cell proliferation were tested for those compounds shown to be able to reduce Gli1 protein level in NIH3T3 cells. Two different commercial cancer cell lines were used: A375 (metastatic melanoma cell line) and DAOY (medulloblastoma cell line).
(§2) To test the effects on cancer cell proliferation, both cell types were treated for 72 h with increasing doses (10 nM, 50 nM, 100 nM, 250 nM, 500 nM, 1 µM, 5 µM) of each compound and counted at the end of the treatment with an MTT-based assay. IC50 was calculated by GraphPad Prism software.

[3] = test system: DAOY (medulloblastoma cell line); assay: Cancer cell proliferation, MTT-based assay, DAOY; conditions: Homo sapiens, 72 h; for IC50: read-out: Effect on proliferation DAOY (IC50; nM)
Protocol: as §1, §2

[4] = Table 3, commercially available compounds
[5] = Figure 2 dose-response curve, read-out: IC50

Row | SMILES | IC50 [2, 4] | IC50 [3, 4] | IC50 ([2]; Table 2, new compounds) | IC50 ([3]; Table 2, new compounds) | pIC50 [2, 5] | pIC50 [3, 5] | Effect on Gli1 protein [1, 4] | Gli1 protein level [1] | Effect on Gli1 protein ([1]; Table 2, new compounds)
1 | COc1ccc(C(NC(C)=O)c2cc(Cl)c3cccnc3c2O)cc1OC (stereo not shown) [SST0687AA1, N-[(5-Chloro-8-hydroxy-quinolin-7-yl)-(3,4-dimethoxy-phenyl)-methyl]-acetamide] | 300 to 1000 nM | 300 to 1000 nM |  |  |  |  | +++ |  | 
2 | CCCC(=O)NC(c1ccc(Cl)cc1Cl)c1cc(Cl)c2cccnc2c1O (stereo not shown) [SST0689AA1, N-[(5-Chloro-8-hydroxy-quinolin-7-yl)-(2,4-dichlorophenyl)-methyl]-butyramide] | 300 to 1000 nM | 300 to 1000 nM |  |  |  |  | +++ |  | 
3 | COc1ccc(C(NC(=O)C(C)C)c2cc(Cl)c3cccnc3c2O)cc1OC (stereo not shown) [SST0769AA1, Propanamide, N-[(5-chloro-8-hydroxy-7-quinolinyl)(3,4-dimethoxyphenyl)methyl]-2-methyl-] | 300 to 1000 nM | 300 to 1000 nM |  |  |  |  | ++ (Gli1 protein level reduced (more than 50%) at 48 h compared to DMSO control) |  | 
4 | CCCC(=O)NC(c1ccc(N(CC)CC)cc1)c1cc(Cl)c2cccnc2c1O (stereo not shown) [SST0771AA1, Butanamide, N-[(5-chloro-8-hydroxy-7-quinolinyl)[4-(diethylamino)phenyl]methyl]-] | 300 to 1000 nM | 300 to 1000 nM |  |  |  |  | +++ |  | 
5 | CCCC(=O)NC(c1ccc(C)cc1)c1cc(Cl)c2cccnc2c1O (stereo not shown) [SST0773AA1, Butanamide, N-[(5-chloro-8-hydroxy-7-quinolinyl)(4-methylphenyl)methyl]-] | 300 to 1000 nM | 300 to 1000 nM |  |  |  |  | + |  | 
6 | CCCCC(=O)NC(c1ccc(C(C)C)cc1)c1cc(Cl)c2cccnc2c1O (stereo not shown) [SST0774AA1, Pentanamide, N-[(5-chloro-8-hydroxy-7-quinolinyl)[4-(1-methylethyl)phenyl]methyl]-] | ≤ 300 nM | ≤ 300 nM |  |  |  |  | +++ |  | 
7 | CCCC(=O)NC(c1ccccc1Cl)c1cc(Cl)c2cccnc2c1O (stereo not shown) [SST0775AA1, Butanamide, N-[(5-chloro-8-hydroxy-7-quinolinyl)(2-chlorophenyl)methyl]-] | 300 to 1000 nM | 300 to 1000 nM |  |  |  |  | + |  | 
8 | CCCC(=O)NC(c1ccc(Cl)cc1Cl)c1ccc2cccnc2c1O (stereo not shown) [SST0776AA1, Butanamide, N-[(2,4-dichlorophenyl)(8-hydroxy-7-quinolinyl)methyl]-] | ≤ 300 nM | ≤ 300 nM |  |  |  |  | +++ |  | 
9 | CCCCC(=O)NC(c1ccc(OC)c(OC)c1)c1ccc2cccnc2c1O (stereo not shown) [SST0777AA1, Pentanamide, N-[(3,4-dimethoxyphenyl)(8-hydroxy-7-quinolinyl)methyl]] | 300 to 1000 nM | 300 to 1000 nM |  |  |  |  | +++ |  | 
10 | Clc1cc2c(c3ncccc13)OCN(CCC1=CCCCC1)C2 [SST0791AA1, 2H-Pyrido[3,2-h]-1,3-benzoxazine, 6-chloro-3-[2-(1-cyclohexen-1-yl)ethyl]-3,4-dihydro-] | ≤ 300 nM | ≤ 300 nM |  |  |  |  | ++ (Gli1 protein level reduced (more than 50%) at 48 h compared to DMSO control) |  | 
11 | O=C1Oc2c(ccc3cccnc23)C(c2ccc(Cl)cc2Cl)N1CCc1ccccc1 (stereo not shown) [SST0826AA1, 4-(2,4-dichlorophenyl)-3-phenethyl-3,4-dihydro-2H-[1,3]oxazino[5,6-h]quinolin-2-one] |  |  |  |  |  |  |  | slight reduction in Gli1 protein level | 

More lines, main results first:

Row | IC50 [2, 4] | IC50 [3, 4] | IC50 ([2]; Table 2, new compounds) | IC50 ([3]; Table 2, new compounds) | pIC50 [2, 5] | pIC50 [3, 5] | SMILES | Effect on Gli1 protein [1, 4] | Gli1 protein level [1] | Effect on Gli1 protein ([1]; Table 2, new compounds)
12 | ≤ 300 nM | ≥ 1000 nM |  |  |  |  | Clc1cc2c(c3ncccc13)OCN(CCCN1CCOCC1)C2 [SST0792AA1, 2H-Pyrido[3,2-h]-1,3-benzoxazine, 6-chloro-3,4-dihydro-3-[3-(4-morpholinyl)propyl]-] | + |  | 
13 | 300 to 1000 nM | 300 to 1000 nM |  |  |  |  | CCCCN1COc2c(cc(Cl)c3cccnc23)C1 [SST0793AA1, 2H-Pyrido[3,2-h]-1,3-benzoxazine, 3-butyl-6-chloro-3,4-dihydro-] | ++ (Gli1 protein level reduced (more than 50%) at 48 h compared to DMSO control) |  | 
14 | ≤ 300 nM | ≤ 300 nM |  |  |  |  | Clc1cc2c(c3ncccc13)OCN(CCc1ccccc1)C2 [SST0794AA1, 2H-Pyrido[3,2-h]-1,3-benzoxazine, 6-chloro-3,4-dihydro-3-(2-phenylethyl)-] | ++ (Gli1 protein level reduced (more than 50%) at 48 h compared to DMSO control) |  | 
15 |  |  | ≤ 300 nM | ≤ 300 nM |  |  | c1ccc(CCN2COc3c(ccc4cccnc34)C2)cc1 [SST0823AA1, 3-phenethyl-3,4-dihydro-2H-[1,3]oxazino[5,6-h]quinoline] |  | drastic reduction of Gli1 protein level; also recorded: abolish Gli1 protein level | +++
16 |  |  | ≤ 300 nM | ≤ 300 nM |  |  | Oc1c(C(NCCc2ccccc2)c2ccc(Cl)cc2Cl)ccc2cccnc12 (stereo not shown) [SST0827AA1, 7-((2,4-dichlorophenyl)(phenethylamino)methyl)quinolin-8-ol] |  | drastic reduction of Gli1 protein level; also recorded: abolish Gli1 protein level | +++
17 |  |  | ≥ 1000 nM | ≥ 1000 nM |  |  | Fc1cnc2c3c(ccc2c1)CN(CCc1ccccc1)CO3 [SST0891AA1, 8-fluoro-3-phenethyl-3,4-dihydro-2H-[1,3]oxazino[5,6-h]quinoline] |  | comparable to that obtained with GANT61 | +
18 |  |  | ≤ 300 nM | 300 to 1000 nM | 6.52 | 6.30 | c1cnc2c3c(ccc2c1)CN(C1CCCCC1)CO3 [SST0892AA1, 3-cyclohexyl-3,4-dihydro-2H-[1,3]oxazino[5,6-h]quinoline] |  | drastic reduction of Gli1 protein level; also recorded: abolish Gli1 protein level | +++
19 |  |  | 300 to 1000 nM | 300 to 1000 nM |  |  | c1ccc2c(c1)CCC(N1COc3c(ccc4cccnc34)C1)C2 (stereo not shown) [SST0893AA1, 3-(1,2,3,4-tetrahydronaphthalen-2-yl)-3,4-dihydro-2H-[1,3]oxazino[5,6-h]quinoline] |  |  | +
20 |  |  | 300 to 1000 nM | 300 to 1000 nM |  |  | COc1ccc(CN2COc3c(ccc4cccnc34)C2)cc1 [SST0910AA1, 3-(4-methoxybenzyl)-3,4-dihydro-2H-[1,3]oxazino[5,6-h]quinoline] |  |  | +
21 |  |  | 300 to 1000 nM | ≥ 1000 nM |  |  | c1cnc2c3c(ccc2c1)CN(CC1CCCCC1)CO3 [SST0912AA1, 3-(cyclohexylmethyl)-3,4-dihydro-2H-[1,3]oxazino[5,6-h]quinoline] |  |  | +
22 |  |  | 300 to 1000 nM | ≥ 1000 nM |  |  | c1cnc2c3c(ccc2c1)CN(C1CCCCCC1)CO3 [SST0913AA1, 3-cycloheptyl-3,4-dihydro-2H-[1,3]oxazino[5,6-h]quinoline] |  |  | +
